Drawing on patent US20140058103A1, “Inhibitors of PI3K-Delta and Methods of Their Use and Manufacture” (Exelixis, Inc., priority 2010, published 2014), this text covers IC50 for 22 molecules.

A value given as a limit tells only on which side of the number the result lay.

For this test, the target named is PI3K delta (Homo sapiens, UniProt O00329). Nature of the test: Luciferase-coupled chemiluminescence kinase assay (ATP consumption, KinaseGlo). It is filed as biochemical. The essentials: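 Compound, kinase and ATP (≤ KM) reacted 2 h at ambient temperature, then remaining ATP quantified with luciferase-luciferin (KinaseGlo) luminescence as percent consumed.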
Sequence of PI3K delta (O00329 whole entry): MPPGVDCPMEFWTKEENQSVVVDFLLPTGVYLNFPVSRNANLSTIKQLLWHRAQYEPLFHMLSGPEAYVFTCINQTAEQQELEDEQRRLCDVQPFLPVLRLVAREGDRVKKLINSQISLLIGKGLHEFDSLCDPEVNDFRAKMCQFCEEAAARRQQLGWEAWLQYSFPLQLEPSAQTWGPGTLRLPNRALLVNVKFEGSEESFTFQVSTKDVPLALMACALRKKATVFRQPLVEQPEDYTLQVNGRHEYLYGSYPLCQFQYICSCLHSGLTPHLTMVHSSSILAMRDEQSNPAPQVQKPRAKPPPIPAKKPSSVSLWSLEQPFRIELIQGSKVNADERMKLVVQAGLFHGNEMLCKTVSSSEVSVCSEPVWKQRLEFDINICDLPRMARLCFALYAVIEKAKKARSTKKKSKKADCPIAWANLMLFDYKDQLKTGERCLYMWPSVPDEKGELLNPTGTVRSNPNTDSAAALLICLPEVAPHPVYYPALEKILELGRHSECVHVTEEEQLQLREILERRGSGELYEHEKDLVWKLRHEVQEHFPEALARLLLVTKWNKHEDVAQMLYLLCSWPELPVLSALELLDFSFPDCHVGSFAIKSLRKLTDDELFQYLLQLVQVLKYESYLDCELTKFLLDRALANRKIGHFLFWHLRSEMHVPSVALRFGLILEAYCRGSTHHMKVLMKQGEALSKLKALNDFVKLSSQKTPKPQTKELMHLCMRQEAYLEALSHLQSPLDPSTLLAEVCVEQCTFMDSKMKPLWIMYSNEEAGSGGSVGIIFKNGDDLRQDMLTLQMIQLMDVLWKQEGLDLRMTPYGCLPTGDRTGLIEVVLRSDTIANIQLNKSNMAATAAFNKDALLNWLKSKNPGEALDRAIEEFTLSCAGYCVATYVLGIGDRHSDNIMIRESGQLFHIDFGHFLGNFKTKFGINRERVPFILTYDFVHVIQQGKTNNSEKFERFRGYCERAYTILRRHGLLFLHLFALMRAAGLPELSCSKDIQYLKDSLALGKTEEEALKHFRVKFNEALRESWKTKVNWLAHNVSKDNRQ
Sequence of PI3K delta (P27986 whole entry partner): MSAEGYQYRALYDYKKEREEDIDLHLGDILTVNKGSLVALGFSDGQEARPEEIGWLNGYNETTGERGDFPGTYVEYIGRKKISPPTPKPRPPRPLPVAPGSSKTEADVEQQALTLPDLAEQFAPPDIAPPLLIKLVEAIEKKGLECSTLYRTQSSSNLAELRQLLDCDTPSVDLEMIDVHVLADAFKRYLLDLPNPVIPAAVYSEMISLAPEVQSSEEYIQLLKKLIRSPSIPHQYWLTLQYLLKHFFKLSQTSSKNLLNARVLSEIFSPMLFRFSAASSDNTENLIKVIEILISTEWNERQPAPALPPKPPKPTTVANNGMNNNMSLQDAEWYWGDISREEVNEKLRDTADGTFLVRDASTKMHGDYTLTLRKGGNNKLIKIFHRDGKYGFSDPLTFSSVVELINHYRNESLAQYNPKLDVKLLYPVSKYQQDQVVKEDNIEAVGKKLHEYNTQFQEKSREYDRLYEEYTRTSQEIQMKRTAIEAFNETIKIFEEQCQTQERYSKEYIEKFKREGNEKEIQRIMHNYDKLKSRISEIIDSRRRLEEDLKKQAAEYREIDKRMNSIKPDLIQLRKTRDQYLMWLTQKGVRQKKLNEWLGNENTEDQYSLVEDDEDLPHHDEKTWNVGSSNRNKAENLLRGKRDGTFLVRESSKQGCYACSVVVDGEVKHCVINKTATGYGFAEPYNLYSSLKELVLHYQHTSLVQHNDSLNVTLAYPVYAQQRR
Background: Kinase-Glo measures the ATP left after a reaction by luminescence.

For orientation: IC50 means the point on the concentration scale where inhibition reaches its midpoint. Read a low IC50 as higher potency. As for `Cn1c(-c2cc[nH]c2)nc2c(N3CCC(n4c(=O)[nH]c5ccccc54)CC3)ncnc21` [Compound 166, 1-{1-[9-methyl-8-(1H-pyrrol-3-yl)-9H-purin-6-yl]piperidin-4-yl}-1,3-dihydro-2H-benzimidazol-2-one], the IC50 fell in the range of 500 to 1500 nM.
Consider `C=C(C)c1cn(-c2nc3c(N4CCC(n5c(=O)[nH]c6ccccc65)CC4)ncnc3n2C)cn1` [Compound 167, 1-(1-{9-methyl-8-[4-(1-methylethenyl)-1H-imidazol-1-yl]-9H-purin-6-yl}piperidin-4-yl)-1,3-dihydro-2H-benzimidazol-2-one], for which the IC50 is < 50 nM.
Under `Cn1c(C(=O)NCC2CC2)nc2c(N3CCC4(CC3)C(=O)Nc3c(Br)cccc34)ncnc21` [Compound 168, 6-(7-bromo-2-oxo-1,2-dihydro-1′H-spiro[indole-3,4′-piperidin]-1′-yl)-N-(cyclopropylmethyl)-9-methyl-9H-purine-8-carboxamide] stands < 50 nM; under `Cn1c(C(=O)NCC2CC2)nc2c(N3CCC(n4c(=S)[nH]c5ccccc54)CC3)ncnc21` [Compound 169, N-(cyclopropylmethyl)-9-methyl-6-[4-(2-thioxo-2,3-dihydro-1H-benzimidazol-1-yl)piperidin-1-yl]-9H-purine-8-carboxamide], 50 to 250 nM.
Under `Cn1c(C(=O)NCC2CC2)nc2c(N3CCC4(CC3)CC(=O)Nc3ccccc3O4)ncnc21` [Compound 170, N-(cyclopropylmethyl)-9-methyl-6-(4-oxo-4,5-dihydro-1′H,3H-spiro[1,5-benzoxazepine-2,4′-piperidin]-1′-yl)-9H-purine-8-carboxamide] stands 250 to 500 nM; under `O=C(NCC1CC1)c1nc2c(N3CCC(n4c(=O)[nH]c5ccccc54)CC3)ncnc2n1C1CC1` [Compound 171, 9-Cyclopropyl-N-(cyclopropylmethyl)-6-[4-(2-oxo-2,3-dihydro-1H-benzimidazol-1-yl)piperidin-1-yl]-9H-purine-8-carboxamide], 50 to 250 nM; under `Cn1c(C(=O)NCC2CC2)nc2c(N3CCC(n4c(=O)[nH]c5ccccc54)C3)ncnc21` (stereo not shown) [Compound 172, N-(cyclopropylmethyl)-9-methyl-6-[3-(2-oxo-2,3-dihydro-1H-benzimidazol-1-yl)pyrrolidin-1-yl]-9H-purine-8-carboxamide], 500 to 1500 nM.
The result for `CC(C)CNC(=O)c1nc2c(N3CCC(n4c(=O)[nH]c5ccccc54)CC3)ncnc2n1C1CC1` [Compound 173, 9-cyclopropyl-N-(2-methylpropyl)-6-[4-(2-oxo-2,3-dihydro-1H-benzimidazol-1-yl)piperidin-1-yl]-9H-purine-8-carboxamide] reads 250 to 500 nM.
For `CC(C)c1nnc(-c2nc3c(N4CCC5(CC4)C(=O)Nc4ccccc45)ncnc3n2C)o1` [Compound 174, 1′-{9-methyl-8-[5-(1-methylethyl)-1,3,4-oxadiazol-2-yl]-9H-purin-6-yl}spiro[indole-3,4′-piperidin]-2(1H)-one], the IC50 was < 50 nM.
The result for `O=C(NCC1CC1)c1nc2c(N3CCC4(CC3)C(=O)Nc3ccccc34)ncnc2n1C1CC1` [Compound 175, 9-cyclopropyl-N-(cyclopropylmethyl)-6-(2-oxo-1,2-dihydro-1′H-spiro[indole-3,4′-piperidin]-1′-yl)-9H-purine-8-carboxamide] reads 50 to 250 nM; that for `CC(C)CNC(=O)c1nc2c(N3CCC4(CC3)C(=O)Nc3ccccc34)ncnc2n1C1CC1` [Compound 176, 9-cyclopropyl-N-(2-methylpropyl)-6-(2-oxo-1,2-dihydro-1′H-spiro[indole-3,4′-piperidin]-1′-yl)-9H-purine-8-carboxamide], 50 to 250 nM.
The result for `CCCc1nnc(-c2nc3c(N4CCC5(CC4)C(=O)Nc4ccccc45)ncnc3n2C)o1` [Compound 177, 1′-[9-methyl-8-(5-propyl-1,3,4-oxadiazol-2-yl)-9H-purin-6-yl]spiro[indole-3,4′-piperidin]-2(1H)-one] reads < 50 nM; that for `Cn1c(-c2cnn(CCO)c2)nc2c(N3CCC(n4c(=O)[nH]c5ccccc54)CC3)ncnc21` [Compound 178, 1-{1-(8-[1-(2-hydroxyethyl)-1H-pyrazol-4-yl]-9-methyl-9H-purin-6-yl}piperidin-4-yl)-1,3-dihydro-2H-benzimidazol-2-one], 50 to 250 nM; that for `Cn1c(-c2cocn2)nc2c(N3CCC(n4c(=O)[nH]c5ccccc54)CC3)ncnc21` [Compound 179, 1-{1-[9-methyl-8-(1,3-oxazol-4-yl)-9H-purin-6-yl]piperidin-4-yl}-1,3-dihydro-2H-benzimidazol-2-one], 500 to 1500 nM.
Consider `CCn1c(-c2nnc(C(C)C)o2)nc2c(N3CCC(n4c(=O)[nH]c5ccccc54)CC3)ncnc21` [Compound 180, 1-(1-{9-ethyl-8-[5-(1-methylethyl)-1,3,4-oxadiazol-2-yl]-9H-purin-6-yl}piperidin-4-yl)-1,3-dihydro-2H-benzimidazol-2-one], for which the IC50 was < 50 nM.
The result for `CCOC(=O)Cn1cc(-c2nc3c(N4CCC(n5c(=O)[nH]c6ccccc65)CC4)ncnc3n2C)cn1` [Compound 181, ethyl (4-{9-methyl-6-[4-(2-oxo-2,3-dihydro-1H-benzimidazol-1-yl)piperidin-1-yl]-9H-purin-8-yl}-1H-pyrazol-1-yl)acetate] reads 250 to 500 nM.
Under `CCc1nnc(-c2nc3c(N4CCC5(CC4)C(=O)Nc4ccccc45)ncnc3n2C)o1` [Compound 182, 1′-[8-(5-ethyl-1,3,4-oxadiazol-2-yl)-9-methyl-9H-purin-6-yl]spiro[indole-3,4′-piperidin]-2(1H)-one] stands < 50 nM; under `CC(C)CNC(=O)c1nc2c(N3CCC(n4c(=O)[nH]c5ccccc54)CC3)ncnc2n1CC(F)(F)F` [Compound 183, N-(2-methylpropyl)-6-[4-(2-oxo-2,3-dihydro-1H-benzimidazol-1-yl)piperidin-1-yl]-9-(2,2,2-trifluoroethyl)-9H-purine-8-carboxamide], 250 to 500 nM.
The result for `Cn1c(-c2nnc(C3CC3)o2)nc2c(N3CCC4(CC3)C(=O)Nc3ccccc34)ncnc21` [Compound 184, 1′-[8-(5-cyclopropyl-1,3,4-oxadiazol-2-yl)-9-methyl-9H-purin-6-yl]spiro[indole-3,4′-piperidin]-2(1H)-one] reads < 50 nM.
With `CCn1c(C(=O)NCC2CCC2)nc2c(N3CCC(n4c(=O)[nH]c5ccccc54)CC3)ncnc21` [Compound 185, N-(cyclobutylmethyl)-9-ethyl-6-[4-(2-oxo-2,3-dihydro-1H-benzimidazol-1-yl)piperidin-1-yl]-9H-purine-8-carboxamide], the IC50 is < 50 nM.
Under `CCn1c(C(=O)N2CC[C@@H](F)C2)nc2c(N3CCC(n4c(=O)[nH]c5ccccc54)CC3)ncnc21` [Compound 186, 1-[1-(9-ethyl-8-{[(3R)-3-fluoropyrrolidin-1-yl]carbonyl}-9H-purin-6-yl)piperidin-4-yl]-1,3-dihydro-2H-benzimidazol-2-one] stands < 50 nM; under `CCn1c(C(=O)NC(C)C2CC2)nc2c(N3CCC(n4c(=O)[nH]c5ccccc54)CC3)ncnc21` (stereo not shown) [Compound 187, N-(1-cyclopropylethyl)-9-ethyl-6-[4-(2-oxo-2,3-dihydro-1H-benzimidazol-1-yl)piperidin-1-yl]-9H-purine-8-carboxamide], < 50 nM.
